Laboratory results from PubChem BioAssay (NCI).
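Test compounds were applied to cells in 96-well plates for 48 hours at 5 doses. GI50 is the concentration that inhibits growth by half. TGI denotes the concentration required for complete inhibition of growth.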 Where a SMILES comes first, the peptide text is derived from it. Bridges are numbered along the chain shown (N, C = ends). [ ]: non-standard residue; d: D form. The star is where a group is joined. Phe(4-NO2) = N[CH](Cc1ccc([N+](=O)[O-])cc1)C(=O)O; Cbz = O=C(OCc1ccccc1)*; PhAc = O=C(Cc1ccccc1)*

Key:
Experiment in all cases: NCI anticancer screen, dose series, 48 h
RPMI-8226 leukemia = test system: RPMI-8226 leukemia
IGROV1 ovarian = test system: IGROV1 ovarian
COLO 205 colon = test system: COLO 205 colon
NCI-H522 lung = test system: NCI-H522 lung
ACHN renal = test system: ACHN renal
A498 renal = test system: A498 renal
CCRF-CEM leukemia = test system: CCRF-CEM leukemia
SNB-19 CNS = test system: SNB-19 CNS
OVCAR-8 ovarian = test system: OVCAR-8 ovarian
NCI-H23 lung = test system: NCI-H23 lung
SK-MEL-2 melanoma = test system: SK-MEL-2 melanoma
NCI-H226 lung = test system: NCI-H226 lung
HOP-62 NSCLC = test system: HOP-62 NSCLC
CAKI-1 renal = test system: CAKI-1 renal

SMILES	TGI (RPMI-8226 leukemia) [µM]	TGI (IGROV1 ovarian) [µM]	TGI (COLO 205 colon) [µM]	TGI (NCI-H522 lung) [µM]	TGI (ACHN renal) [µM]	TGI (A498 renal) [µM]	TGI (CCRF-CEM leukemia) [µM]	TGI (SNB-19 CNS) [µM]	TGI (OVCAR-8 ovarian) [µM]	TGI (NCI-H23 lung) [µM]	TGI (SK-MEL-2 melanoma) [µM]	TGI (NCI-H226 lung) [µM]	TGI (HOP-62 NSCLC) [µM]	TGI (CAKI-1 renal) [µM]	GI50 (CAKI-1 renal) [µM]	GI50 (CCRF-CEM leukemia) [µM]
CC(C)C1C(=O)NC(CO)Cc2c[nH]c3c(C(c4c[nH]c5ccccc45)C(O)CO)ccc(c23)N1C (configuration not stated)	> 100	> 100	38.6	> 100	> 100	> 100	> 100	> 100	> 100	> 100	> 100					
NC1OC(COC(=O)c2ccccc2)C(O)C(OC(=O)c2ccccc2)C1OC(=O)c1ccccc1 (configuration not stated)	> 100	35.9	50.3	58.5	56			> 100	37.8	61.9	96.7	43.1	50.2			
Cc1ccc2c3c(cnc2n1)C(=O)OCCN3C		> 100	> 100	> 100	> 100	> 100	> 100	> 100	> 100	> 100	> 100		> 100	> 100		
Cc1ccc(/C=N/Nc2nc3ccccc3s2)s1	> 100	> 100	> 100	> 100	> 100		> 100	> 100	> 100	> 100	> 100	> 100	89.4	> 100		
Cc1ccc2[nH]c3c(C)c4c(c(C)c3c2c1)CN(C)C=C4	35.5	7.38	1.4	1.38	20.5		22	1.99	9.01	2.3	3.2	2.13	2.71	5.89	1.21	2.33
O=c1c(-c2ccccc2)c2oc(c1-c1ccccc1)CS(=O)(=O)CCC2	> 100	> 100	42.1	22.7	> 100		> 100	> 100	> 100	38.9	> 100	80.9	> 100	96.9		
O=C(Cc1ccccc1)N[C@@H]1COC(=O)[C@@H]2CCCN2C(=O)[C@@H]2CCCN2C1=O (PhAc-[dS]-Pro-Pro; ester 1-C)		> 100	> 100		> 100	> 100	> 100	> 100	> 100	> 100	> 100		> 100	> 100		
CCCCCN1CCN(c2ncccn2)CC1	> 100	> 100	> 100	> 100	> 100	> 100	> 100	> 100	> 100	> 100	> 100		> 100	> 100		
O=C(Nc1cc2c(=O)[nH]c3ccccc3c2oc1=O)c1cnccn1		> 100	> 100	> 100	> 100		> 100	> 100	> 100	> 100	> 100	> 100		> 100		
Cc1c(-c2ccccc2)[nH]c2ccc(Cl)cc2c1=O	> 100	> 100	> 100	> 100	> 100		> 100	> 100	69.5	> 100	87	> 100	50.2	3.82		
CC(=O)NC(CCCCN(Cc1ccccc1)C(=O)NCCCl)C(=O)NCc1ccccc1 (configuration not stated)	> 100	> 100	> 100	> 100	> 100		> 100	> 100	> 100	> 100	> 100	> 100	> 100	> 100		
CC1(C)C(C#N)=[N+]([O-])C(C)(C)N1O	> 100	> 100	> 100		> 100		> 100	> 100	> 100	> 100	> 100	> 100	> 100	> 100		
CC1=[N+]([O-])C(C)(C)N(N=O)C1(C)C	> 10		> 10	> 10	> 10		> 10	> 10	> 10	> 10	> 10	> 10	> 10	> 10		
COc1ccc(N=Nc2c(C)c(C#N)c(=S)n(C3OC(COC(C)=O)C(OC(C)=O)C(OC(C)=O)C3OC(C)=O)c2C)cc1 (configuration not stated)	> 100	> 100	> 100		> 100		> 100	> 100		> 100			> 100	> 100		
COc1ccc(/C=N/N=C(\N)NO)c(Cl)c1O	> 100	> 100	> 100	42.1	> 100		> 100	> 100	> 100	63.7	70.6	38.6	72.1	54.8		
COc1cccc(C(=O)Nc2c3ccccc3nc3ccccc23)c1OC	> 100	> 100	> 100	89.9	> 100		> 100	> 100	> 100	> 100	> 100	> 100	> 100	> 100		
O=c1cc(-c2ccccc2)oc2cc(OCC(O)COc3ccc4c(=O)cc(-c5ccccc5)oc4c3)ccc12	> 100	> 100		> 100		> 100	> 100	53.6	> 100	> 100	53.4		24.6	> 100		
CC1=CC=C2c3ccccc3C=CN2C(=O)C1	> 100	> 100	> 100	> 100	> 100		> 100	> 100	> 100	> 100	> 100	> 100	> 100	> 100		
CCOC(=O)CCC(NC(=O)OCc1ccccc1)C(=O)NC(CCC(=O)OCC)C(=O)NC(Cc1ccc([N+](=O)[O-])cc1)C(=O)NC(CCC(=O)OCC)C(=O)NC(CCC(=O)OCC)C(=O)OCC (configuration not stated) (Cbz-E(OEt)E(OEt)[Phe(4-NO2)]E(OEt)E(OEt)-OEt; configuration not given here)	> 100	> 100	> 100	> 100	> 100		> 100	> 100	> 100	> 100	> 100		> 100	> 100		
Cc1ccc2nc(N/N=C/c3ccc(C)s3)cc(C)c2c1	56.6	23.6	12.2	18.9	24.1			27.2	31.3	22	35.3	31.7	31.3	30.9		
CCOC(=O)C1(C#N)C(c2ccccc2)CC(O)(c2ccc([N+](=O)[O-])cc2)C(C(=O)c2ccc([N+](=O)[O-])cc2)C1c1ccccc1 (configuration not stated)	> 100	> 100	> 100	> 100	> 100		> 100	> 100	> 100	> 100	> 100	> 100	> 100	> 100		
CC1C(=NO)C(C)C(c2ccccc2)N(N=O)C1c1ccccc1 (configuration not stated)		52.9	31.5	34.5	45.7		84.5	50.5	41.5	77.1	39.5	55.2	41.6			
COc1ccc2oc(=Nc3ccccc3)c(C(N)=O)cc2c1	> 100	> 100	> 100	> 100	42		> 100	> 45.1	> 100	> 100	> 100	> 100	98.4	> 100		
Cc1nn2c(=O)c([N+](=O)[O-])c(/C=C/c3ccco3)nc2s1	> 100	> 100	> 100	> 100	> 100		> 100	> 100	> 100	> 100	> 100	> 100	> 100	> 100		
c1ccc(N=C(N2CCOCC2)N(CCN2CCOCC2)c2ccccc2)cc1	> 100	> 100	> 100	> 100			> 100	> 100	> 100	> 100	> 100	> 100	> 100	> 100		
COc1cc(C2SCC(=O)N2Cc2ccccc2)cc(OC)c1OC (configuration not stated)	> 100	> 100	> 100	> 100	> 100		> 100	> 100	> 100	> 100	> 100	> 100		> 100		
